From patent US12384756B2, “Piperidinedione derivatives” (INNOCURE THERAPEUTICS, INC., priority 2021, dated 2025)
Read-outs that look alike come from different tables or passages of the source.

Experiments:
[1] = system: Human breast cancer cell line [MDA-MB-231]; test: Anti-proliferative activity (WST-8) of BRD4 targeted PROTAC in MDA-MB-231; type: cell-based; conditions: MDA-MB-231, 72 hours
Protocol: (§1) Human breast cancer cell line [MDA-MB-231] was cultured in RPMI medium with 10% petal bovine serum, penicillin [100 U/ml] and streptomycin [[…]]. The synthesized compound was prepared as a stock solution of 10 mM or 50 mM dissolved in DMSO [dimethyl sulfoxide], and it was sequentially diluted to treat the cell line.
In order to observe inhibition of cell growth, cells were aliquoted into concentrations of 5,000 cells/well at 96 well plates, and then were treated with samples prepared at various concentrations for 72 hours. The cell survival was calculated by steps of adding in each well […] of water soluble tetrazolium salt (WST-8) which produces formazon in response to dehydrogenase present in the electron transport chain in mitochondria, incubating for 2 hours, measuring the absorbance at 450 nm, and calculating by GraphicPad Prism 8.0 software.

BRD4 = BRD4 (Homo sapiens, UniProt O60885); test: BRD4 protein degradation by western blot in MDA-MB-231 cells; type: cell-based; parameters: BRD4 expressed in cells; endogenous in cells; host or cells: MDA-MB-231; conditions: MDA-MB-231, 24 hours; for DC50: 50% inhibition of protein expression, read-out: DC50 of BRD4-targeted PROTAC
Protocol: as §1
To evaluate the PROTAC's degradation ability to BRD4 expressed in cells, the cells were aliquoted into a 6 well plate at a concentration of 5×10^5 cells/ml, and then the sample was treated for 24 hours. In order to conduct western blotting assay to confirm protein expression, the cell treated with the compound was treated for 30 minutes with 70 μL of RIPA buffer wherein protease inhibitor is added. Then, cell lysate was collected on ice using a scraper and centrifuged at 4° C. 15,000 rpm for 30 minutes to obtain a supernatant containing protein. Then, SDS-PAGE is conducted for 10 μg of protein per each sample, and the protein is transferred to a membrane. The protein is reacted with antibodies of anti-BRD4, anti-tubulin and anti-GAPDH at 4° C. for 16 hours, and then, reacted with secondary antibodies at room temperature for 1 hour. The protein expression is confirmed using SUPERSIGNAL™ WEST PICO PLUS chemiluminescence substrate and image analyzer. The protein expression was normalized based on the expression value of β-tublin or GAPDH. The amount of protein expression in each sample was measured in % based on the sample treated with 0.1% DMSO vehicle which was set to 100%. The amount of protein expression was quantified using the IMAGE J PROGRAM. The change in the amount of protein expression due to the treatment of compound (DC50: the concentration of compounds where the 50% inhibition of protein expression is achieved) was calculated using […] PRISM 8.0 software.

[2] = Homo sapiens, WST-8, read-out: IC50 of BRD4-targeted PROTAC (cell proliferation)
[3] = Homo sapiens, read-out: concentration at which cancer cell proliferation is effectively inhibited

Molecule	IC50 [1, 2]	IC50 [1, 3]	BRD4 degradation (in words) (BRD4)	DC50 (BRD4)	IC50 ([1]; WST-8, read-out: IC50 of BRD4-targeted PROTAC (cell proliferation))
Cc1sc2c(c1C)C(c1ccc(Cl)cc1)=N[C@@H](CC(=O)NCc1cn(CCOCCOCCNc3cccc4cnn(C5CCC(=O)NC5=O)c(=O)c34)nn1)c1nnc(C)n1-2 (stereo partly drawn) [Ex. 31, 2-((S)-4-(4-chlorophenyl)-2,3,9-trimethyl-6H-thieno[3,2-f][1,2,4]triazolo[4,3-a][1,4]diazepin-6-yl)-N-((1-(2-(2-(2-((3-(2,6-dioxopiperidin-3-yl)-4-oxo-3,4-dihydrophthalazin-5-yl)amino)ethoxy)ethoxy)ethyl)-1H-1,2,3-triazol-4-yl)methyl)acetamide]	> 1000 nM				
Cc1sc2c(c1C)C(c1ccc(Cl)cc1)=N[C@@H](CC(=O)Nc1cccc(OCCOCCOCCNc3cccc4c(C)nn(C5CCC(=O)NC5=O)c(=O)c34)c1)c1nnc(C)n1-2 (stereo partly drawn) [Example 39, 2-((S)-4-(4-chlorophenyl)-2,3,9-trimethyl-6H-thieno[3,2-f][1,2,4]triazolo[4,3-a][1,4]diazepin-6-yl)-N-(3-(2-(2-(2-((3-(2,6-dioxopiperidin-3-yl)-1-methyl-4-oxo-3,4-dihydrophthalazin-5-yl)amino)ethoxy)ethoxy)ethoxy)phenyl)acetamide]	< 1 nM	< 250 nM	effectively degraded	0.575 nM	
Cc1sc2c(c1C)C(c1ccc(Cl)cc1)=N[C@@H](CC(=O)NCCN1CCN(c3ccc4cnn(C5CCC(=O)NC5=O)c(=O)c4c3)CC1)c1nnc(C)n1-2 (stereo partly drawn) [Example 49, 2-((S)-4-(4-chlorophenyl)-2,3,9-trimethyl-6H-thieno[3,2-f][1,2,4]triazolo[4,3-a][1,4]diazepin-6-yl)-N-(2-(4-(3-(2,6-dioxopiperidin-3-yl)-4-oxo-3,4-dihydrophthalazin-6-yl)piperazin-1-yl)ethyl)acetamide]	30.6 nM	< 250 nM	effectively degraded	40.7 nM	
N-(4-(2-(2,6-dioxopiperidin-3-yl)-1-oxo-1,2-dihydrophthalazin-6-yl)butyl)-2-((S)-2,3,9-trimethyl-4-phenyl-6H-thieno[3,2-f][1,2,4]triazolo[4,3-a][1,4]diazepin-6-yl)acetamide [Example 47]				52.3 nM	754 nM
Cc1sc2c(c1C)C(c1ccc(Cl)cc1)=N[C@@H](CC(=O)NCc1cn(CCOCCOCCNc3cccc4c(=O)n(C5CCC(=O)NC5=O)ncc34)nn1)c1nnc(C)n1-2 (stereo partly drawn) [Ex. 33, 2-[(9S)-7-(4-chlorophenyl)-4,5,13-trimethyl-3-thia-1,8,11,12-tetraazatricyclo[8.3.0.0^2,6]trideca-2(6),4,7,10,12-pentaen-9-yl]-N-[(1-{2-[2-(2-{[2-(2,6-dioxopiperidin-3-yl)-1-oxo-1,2-dihydrophthalazin-5-yl]amino}ethoxy)ethoxy]ethyl}-1H-1,2,3-triazol-4-yl)methyl]acetamide]	> 1000 nM			171 nM	
Cc1sc2c(c1C)C(c1ccc(Cl)cc1)=N[C@@H](CC(=O)NCC#Cc1ccc3c(=O)n(C4CCC(=O)NC4=O)ncc3c1)c1nnc(C)n1-2 (stereo partly drawn) [Example 40, 2-((S)-4-(4-chlorophenyl)-2,3,9-trimethyl-6H-thieno[3,2-f][1,2,4]triazolo[4,3-a][1,4]diazepin-6-yl)-N-(3-(2-(2,6-dioxopiperidin-3-yl)-1-oxo-1,2-dihydrophthalazin-6-yl)prop-2-yn-1-yl)acetamide]	227 nM	< 250 nM	effectively degraded	10.9 nM	
Cc1sc2c(c1C)C(c1ccc(Cl)cc1)=N[C@@H](CC(=O)NCCCN1CCN(CCCNc3cccc4cnn(C5CCC(=O)NC5=O)c(=O)c34)CC1)c1nnc(C)n1-2 (stereo partly drawn) [Example 38, 2-((S)-4-(4-chlorophenyl)-2,3,9-trimethyl-6H-thieno[3,2-f][1,2,4]triazolo[4,3-a][1,4]diazepin-6-yl)-N-(3-(4-(3-((3-(2,6-dioxopiperidin-3-yl)-4-oxo-3,4-dihydrophthalazin-5-yl)amino)propyl)piperazin-1-yl)propyl)acetamide]	568 nM			66.5 nM	
Cc1sc2c(c1C)C(c1ccc(Cl)cc1)=N[C@@H](CC(=O)NCCCCCNc1ccc3c(=O)n(C4CCC(=O)NC4=O)ncc3c1)c1nnc(C)n1-2 (stereo partly drawn) [Example 37, 2-((S)-4-(4-chlorophenyl)-2,3,9-trimethyl-6H-thieno[3,2-f][1,2,4]triazolo[4,3-a][1,4]diazepin-6-yl)-N-(5-((2-(2,6-dioxopiperidin-3-yl)-1-oxo-1,2-dihydrophthalazin-6-yl)amino)pentyl)acetamide]	< 1 nM	< 250 nM	effectively degraded	0.173 nM	
Cc1sc2c(c1C)C(c1ccc(Cl)cc1)=N[C@@H](CC(=O)NCC1CCN(c3cccc4cnn(C5CCC(=O)NC5=O)c(=O)c34)CC1)c1nnc(C)n1-2 (stereo partly drawn) [Example 53, 2-((S)-4-(4-chlorophenyl)-2,3,9-trimethyl-6H-thieno[3,2-f][1,2,4]triazolo[4,3-a][1,4]diazepin-6-yl)-N-((1-(3-(2,6-dioxopiperidin-3-yl)-4-oxo-3,4-dihydrophthalazin-5-yl)piperidine-4-yl)methyl)acetamide]	> 1000 nM				
Cc1sc2c(c1C)C(c1ccc(Cl)cc1)=N[C@@H](CC(=O)NCCOc1cccc3c(=O)n(C4CCC(=O)NC4=O)ncc13)c1nnc(C)n1-2 (stereo partly drawn) [Example 46, 2-((S)-4-(4-chlorophenyl)-2,3,9-trimethyl-6H-thieno[3,2-f][1,2,4]triazolo[4,3-a][1,4]diazepin-6-yl)-N-(2-((2-(2,6-dioxopiperidin-3-yl)-1-oxo-1,2-dihydrophthalazin-5-yl)oxy)ethyl)acetamide]	> 1000 nM				
Cc1sc2c(c1C)C(c1ccc(Cl)cc1)=N[C@@H](CC(=O)Nc1cccc(OCCOCCOCCNc3cccc4c(=O)n(C5CCC(=O)NC5=O)ncc34)c1)c1nnc(C)n1-2 (stereo partly drawn) [Ex. 30, 2-[(9S)-7-(4-chlorophenyl)-4,5,13-trimethyl-3-thia-1,8,11,12-tetraazatricyclo[8.3.0.0^2,6]trideca-2(6),4,7,10,12-pentaen-9-yl]-N-(3-{2-[2-(2-{[2-(2,6-dioxopiperidin-3-yl)-1-oxo-1,2-dihydrophthalazin-5-yl]amino}ethoxy)ethoxy]ethoxy}phenyl)acetamide]	> 1000 nM				
Cc1sc2c(c1C)C(c1ccc(Cl)cc1)=N[C@@H](CC(=O)NCC1CCN(c3cccc4cnn(C5CCC(=O)NC5=O)c(=O)c34)C1)c1nnc(C)n1-2 (stereo partly drawn) [Example 50, 2-((S)-4-(4-chlorophenyl)-2,3,9-trimethyl-6H-thieno[3,2-f][1,2,4]triazolo[4,3-a][1,4]diazepin-6-yl)-N-((1-(3-(2,6-dioxopiperidin-3-yl)-4-oxo-3,4-dihydrophthalazin-5-yl)pyrrolidin-3-yl)methyl)acetamide]	622 nM				
Cc1sc2c(c1C)C(c1ccc(Cl)cc1)=N[C@@H](CC(=O)NCCCCCNc1cccc3c(=O)n(C4CCC(=O)NC4=O)ncc13)c1nnc(C)n1-2 (stereo partly drawn) [Example 51, 2-[(9S)-7-(4-chlorophenyl)-4,5,13-trimethyl-3-thia-1,8,11,12-tetraazatricyclo[8.3.0.0^2,6]trideca-2(6),4,7,10,12-pentaen-9-yl]-N-(5-{[2-(2,6-dioxopiperidin-3-yl)-1-oxo-1,2-dihydrophthalazin-5-yl]amino}pentyl)acetamide]	101 nM				
Cc1sc2c(c1C)C(c1ccc(Cl)cc1)=N[C@@H](CC(=O)NCCCCCNc1cccc3cnn(C4CCC(=O)NC4=O)c(=O)c13)c1nnc(C)n1-2 (stereo partly drawn) [Example 52, 2-[(9S)-7-(4-chlorophenyl)-4,5,13-trimethyl-3-thia-1,8,11,12-tetraazatricyclo[8.3.0.0^2,6]trideca-2(6),4,7,10,12-pentaen-9-yl]-N-(5-{[3-(2,6-dioxopiperidin-3-yl)-4-oxo-3,4-dihydrophthalazin-5-yl]amino}pentyl)acetamide]	127 nM				
Cc1sc2c(c1C)C(c1ccc(Cl)cc1)=N[C@@H](CC(=O)NCc1cn(CCOCCOCCOCCNc3cccc4cnn(C5CCC(=O)NC5=O)c(=O)c34)nn1)c1nnc(C)n1-2 (stereo partly drawn) [Ex. 32, 2-((S)-4-(4-chlorophenyl)-2,3,9-trimethyl-6H-thieno[3,2-f][1,2,4]triazolo[4,3-a][1,4]diazepin-6-yl)-N-((1-(2-(2-(2-(2-((3-(2,6-dioxopiperidin-3-yl)-4-oxo-3,4-dihydrophthalazin-5-yl)amino)ethoxy)ethoxy)ethoxy)ethyl)-1H-1,2,3-triazol-4-yl)methyl)acetamide]	> 1000 nM				
